# Marks after values point to notes of the source that are not given here.
# Biological target: T1, Human-Pankreas-α-Amylase (HPA) (Homo sapiens, UniProt P04746)
# T1 sequence (P04746 16-511): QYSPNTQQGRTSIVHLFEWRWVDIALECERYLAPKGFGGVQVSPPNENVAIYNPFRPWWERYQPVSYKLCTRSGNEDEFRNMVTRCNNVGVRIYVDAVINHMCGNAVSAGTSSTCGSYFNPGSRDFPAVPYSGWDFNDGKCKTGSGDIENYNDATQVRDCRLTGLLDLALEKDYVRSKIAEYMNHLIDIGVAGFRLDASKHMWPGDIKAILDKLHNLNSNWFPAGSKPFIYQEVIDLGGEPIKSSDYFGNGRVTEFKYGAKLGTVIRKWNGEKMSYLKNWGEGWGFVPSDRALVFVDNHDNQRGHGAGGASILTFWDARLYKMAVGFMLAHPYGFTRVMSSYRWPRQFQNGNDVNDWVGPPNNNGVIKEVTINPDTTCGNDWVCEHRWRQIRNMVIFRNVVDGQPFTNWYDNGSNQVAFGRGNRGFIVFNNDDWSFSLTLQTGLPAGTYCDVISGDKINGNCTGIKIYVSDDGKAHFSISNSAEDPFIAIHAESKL
# Assay: direct α-amylase determination with synthetic substrates, without auxiliary enzymes (absorbance change per minute)
# Type: biochemical
# Details: for 400 mMol/l KSCN HPA [ΔE/min]: activator 400 mMol/l KSCN, read at the wavelength given per substrate (645 or 578 nm); for 400 mmol/l KSCN HPA relativer Wert [ΔE/min]: relative value (Beispiel 1 = 1)
# Source text: Es wurde mit den in der folgenden Tabelle und in Fig. 1 aufgeführten Substraten, die Amylaseaktivität von Human-Pankreas-α-Amylase (HPA) und Human-Speichel-α-Amylase (HSA) untersucht. Die folgenden Reagenzien wurden verwendet:
# Substrat (wie in der Tabelle angegeben) 49,3 mMol/l
# Reagenz 1 enthält gegebenenfalls noch Aktivator, wie in Tabelle angegeben, sowie - als Hemmstoffe für die Speichel-α-Amylase- von den Zellinien NCACC 84122003 (MAK I) und NCACC 84111301 (MAK II) produzierte Antikörper. Zur Durchführung der Bestimmung wird 1,00 ml Reagenz 1 mit 0,02 ml der Probe gemischt und auf 37°C temperiert. Anschließend wird 0,10 ml Reagenz 2 zugegeben, gemischt und nach 1,2 und 3 Minuten die Extinktion bei der jeweiligen Meßwellenlänge (s. Tabelle) abgelesen. Es wird der Mittelwert der Extinktionsdifferenz/Minute gebildet.
# Die Endkonzentrationen im Testansatz betragen:
# Als Probe wird Humanpankreas-Amylase (HPA) verwendet. Die Messung erfolgt bei 37°C bei der jeweils angegebenen Meßwellenlänge. Die Ergebnisse sind der Tabelle zu entnehmen. Tabelle
# Verwendung der gemäß Beispiel 4 und Beispiel 5 hergestellten Substanzen als Substrate zur direkten α-Amylase-Bestimmung.
# Es wird analog zu Beispiel 2 vorgegangen.
# [1] = MES buffer pH 6,0, 37°C, substrate 4,44 mmol/l
# [2] = measured at pH 8,0, 595 or 573 nm
SMILES,400 mMol/l KSCN HPA [ΔE/min] [1],400 mmol/l KSCN HPA relativer Wert [ΔE/min] [2],also measured
"O=C1C(Cl)=CC(=Nc2ccc(O[C@H]3O[C@H](CO)[C@@H](O[C@H]4O[C@H](CO)[C@@H](O[C@H]5O[C@H](CO)[C@@H](O)[C@H](O)[C@H]5O)[C@H](O)[C@H]4O)[C@H](O)[C@H]3O)cc2)C=C1Cl [2,6-Dichlor-indophenylα-maltotriosid, reference compound]",0 ΔE/min,,
"CC1=CC(=Nc2ccc(O[C@H]3O[C@H](CO)[C@@H](O[C@H]4O[C@H](CO)[C@@H](O[C@H]5O[C@H](CO)[C@@H](O)[C@H](O)[C@H]5O)[C@H](O)[C@H]4O)[C@H](O)[C@H]3O)cc2)C=C(C)C1=O [2,6-Dimethyl-indophenylα-maltotriosid, reference compound]",,,"HPA [ΔE/min] (with 150 mmol/l NaN₃ instead of KSCN, MES buffer pH 6,0, 37°C, substrate 4,44 mmol/l, 578 nm): 0* ΔE/min"
"O=C1C(Cl)=CC(=Nc2ccc(O[C@H]3O[C@H](CO)[C@@H](O[C@H]4O[C@H](CO)[C@@H](O[C@H]5O[C@H](CO)[C@@H](O)[C@H](O)[C@H]5O)[C@H](O)[C@H]4O)[C@H](O)[C@H]3O)c(Cl)c2)C=C1Cl [Beispiel 1, 2',2,6-Trichlor-indophenyl-α-maltotriosid]","0,063 ΔE/min",,"Spaltung durch α-Amylase als direktes Substrat (in words, in the absence of auxiliary enzymes): hervorragend durch α-Amylase in Abwesenheit von Hilfsenzymen spaltbar; 400 mmol/l KSCN HPA relativer Wert [ΔE/min] (analogous to Beispiel 2 (pH 6,0, 37°C), 645 nm): 1 ΔE/min"
"CC1=CC(=Nc2ccc(O[C@H]3O[C@H](CO)[C@@H](O[C@H]4O[C@H](CO)[C@@H](O[C@H]5O[C@H](CO)[C@@H](O)[C@H](O)[C@H]5O)[C@H](O)[C@H]4O)[C@H](O)[C@H]3O)c(Cl)c2)C=CC1=O [Beispiel 4, 2'-Chlor-2-methyl-indophenyl-α-maltotriosid]",,"0,35* ΔE/min",
"CC1=CC(=Nc2ccc(O[C@H]3O[C@H](CO)[C@@H](O[C@H]4O[C@H](CO)[C@@H](O[C@H]5O[C@H](CO)[C@@H](O)[C@H](O)[C@H]5O)[C@H](O)[C@H]4O)[C@H](O)[C@H]3O)c(Cl)c2)C=C(C)C1=O [Beispiel 5, 2'-Chlor-2,6-dimethyl-indophenyl-α-maltotriosid]",,"0,27* ΔE/min",

# — EP0510620A1, “Indophenol substituted oligomaltosides as substrates for alpha-amylase” (BOEHRINGER MANNHEIM GMBH, priority 1991, dated 1992)
